Patent publication US8283465B2, “Triazolopyridine compound, and action thereof as prolyl hydroxylase inhibitor or erythropoietin production-inducing agent” (Japan Tobacco Inc., priority 2009, dated 2012)
Where a name gives a salt, the structure may show the parent alone. Read-outs that look alike come from different tables or passages of the source.

Assays:
human PHD2 = target: T1, human PHD2 (Homo sapiens, UniProt Q9GZT9); experiment: Measurement of human PHD inhibitory activity (TR-FRET, hydroxylation of HIF-1α partial peptide); format: biochemical; conditions: human PHD2 enzyme 1 nM, 25° C. 30 min, values consisting solely of numbers
T1 construct: made in house; host or cells: Sf9 insect cells (baculovirus, pVL1393 vector)
Outline: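 FLAG-tagged human PHD2 from Sf9 cells (1 nM final) hydroxylates a biotinylated 19-residue HIF-1α peptide, 30 min at 25° C. After EDTA stop, hydroxyproline detected by TR-FRET using Eu/Xlent-labelled VBC complex; % inhibition relative to no-enzyme and no-compound wells.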

[1] = test system: human EPO production, Hep3B cells; experiment: Human EPO production activity in Hep3B cells (EPO-ELISA of culture supernatant); format: cell-based; conditions: for EC50: 24 hr incubation, values consisting solely of numbers, read-out: EC50 (μM) in vitro, human EPO production activity; for production activity (%) at 30 μM in vitro, human EPO: 24 hr, values containing %, relative to maximum production
Outline: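 Hep3B cells were dosed with compound 24 h after plating and incubated 24 h at 37° C. Secreted EPO in supernatant was measured by ELISA. Values are EC50, or activity (%) at 30 μM scaled between untreated and maximum production.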

[2] = read-out: IC50 (μM) in vitro, human PHD inhibitory activity

T1 sequence (Q9GZT9 whole entry): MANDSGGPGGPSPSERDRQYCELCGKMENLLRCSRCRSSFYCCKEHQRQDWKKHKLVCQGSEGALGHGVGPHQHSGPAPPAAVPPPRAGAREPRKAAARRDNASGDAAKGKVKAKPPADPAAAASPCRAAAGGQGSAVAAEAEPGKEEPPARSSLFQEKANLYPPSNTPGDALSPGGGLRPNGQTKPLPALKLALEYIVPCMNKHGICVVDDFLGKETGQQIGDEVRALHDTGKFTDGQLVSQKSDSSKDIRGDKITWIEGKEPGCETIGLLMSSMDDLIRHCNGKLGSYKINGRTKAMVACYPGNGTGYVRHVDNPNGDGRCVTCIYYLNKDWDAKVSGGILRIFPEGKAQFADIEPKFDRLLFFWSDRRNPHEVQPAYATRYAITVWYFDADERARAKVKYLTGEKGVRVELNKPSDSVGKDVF

| IC50 (human PHD2; [2]) [µM] | EC50 ([1]; Homo sapiens) [µM] | Structure (SMILES) | production activity (%) at 30 μM in vitro, human EPO [1] [%] | IC50 (human PHD2; IC50 (μM) in vitro, human PHD inhibitory activity) [µM] | EC50 [1] [µM] |
| --- | --- | --- | --- | --- | --- |
| 0.15 | 6.5 | O=C(O)CNC(=O)c1c(O)cc(-c2cccc(C(F)(F)F)c2)c2ncnn12 [Example 110, {[6-hydroxy-8-(3-trifluoromethyl phenyl)[1,2,4]triazolo[1,5-a]pyridine-5-carbonyl]amino} acetic acid hydrochloride] | – | – | – |
| 1.1 | – | Cl.O=C(O)CNC(=O)c1c(O)c(-c2ccccc2)cn2c(-c3ccccc3)nnc12 [Example 111, [(7-hydroxy-3,6-diphenyl[1,2,4]triazolo[4,3-a]pyridine-8-carbonyl)amino] acetic acid hydrochloride] | 0 | – | – |
| 3.09 | – | Cc1nnc2c(C(=O)NCC(=O)O)c(O)c(-c3ccccc3)cn12.Cl [Example 112, [(7-hydroxy-3-methyl-6-phenyl[1,2,4]triazolo[4,3-a]pyridine-8-carbonyl)amino] acetic acid hydrochloride] | 0 | – | – |
| 0.56 | – | O=C(O)CNC(=O)c1c(O)ccn2c(-c3ccccc3)nnc12 [Example 113, [(7-hydroxy-3-phenyl[1,2,4]triazolo[4,3-a]pyridine-8-carbonyl)amino] acetic acid] | 0 | – | – |
| 1.2 | – | Cl.O=C(O)CNC(=O)c1c(O)ccn2c(CCc3ccccc3)nnc12 [Example 114, [(7-hydroxy-3-phenethyl[1,2,4]triazolo[4,3-a]pyridine-8-carbonyl)amino] acetic acid hydrochloride] | 0 | – | – |
| 1.8 | – | Cl.O=C(O)CNC(=O)c1c(O)ccn2c(CCC3CCCCC3)nnc12 [Example 115, {[3-(2-cyclohexylethyl)-7-hydroxy[1,2,4]triazolo[4,3-a]pyridine-8-carbonyl]amino} acetic acid hydrochloride] | 0 | – | – |
| – | – | O=C(O)CNC(=O)c1c(O)cc(CCc2ccccc2)n2ncnc12 [Example 116, [(7-hydroxy-5-phenethyl[1,2,4]triazolo[1,5-a]pyridine-8-carbonyl)amino] acetic acid] | – | 0.18 | 5.6 |
